Measured values: patent US9944654B2, “Nargenicin compounds and uses thereof as antibacterial agents” (priority 2014, dated 2018)
Values after ≈ are worked out from the molar mass of the structure shown. Where two headings read alike, the source gives them in different places.

Tests used:
[1] = biological target: T1, E. coli DnaE (DNA polymerase III α-subunit from Escherichia coli) (Escherichia coli, UniProt P10443); assay: In vitro DnaE single enzyme assay (E. coli); type: biochemical
T1 construct: EcDnaE (E. coli DnaE residues 1-1160); 6xHis (N); made in house; host or cells: E. coli BL21(DE3)
T1 sequence (P10443 whole entry, the tested form may be a part): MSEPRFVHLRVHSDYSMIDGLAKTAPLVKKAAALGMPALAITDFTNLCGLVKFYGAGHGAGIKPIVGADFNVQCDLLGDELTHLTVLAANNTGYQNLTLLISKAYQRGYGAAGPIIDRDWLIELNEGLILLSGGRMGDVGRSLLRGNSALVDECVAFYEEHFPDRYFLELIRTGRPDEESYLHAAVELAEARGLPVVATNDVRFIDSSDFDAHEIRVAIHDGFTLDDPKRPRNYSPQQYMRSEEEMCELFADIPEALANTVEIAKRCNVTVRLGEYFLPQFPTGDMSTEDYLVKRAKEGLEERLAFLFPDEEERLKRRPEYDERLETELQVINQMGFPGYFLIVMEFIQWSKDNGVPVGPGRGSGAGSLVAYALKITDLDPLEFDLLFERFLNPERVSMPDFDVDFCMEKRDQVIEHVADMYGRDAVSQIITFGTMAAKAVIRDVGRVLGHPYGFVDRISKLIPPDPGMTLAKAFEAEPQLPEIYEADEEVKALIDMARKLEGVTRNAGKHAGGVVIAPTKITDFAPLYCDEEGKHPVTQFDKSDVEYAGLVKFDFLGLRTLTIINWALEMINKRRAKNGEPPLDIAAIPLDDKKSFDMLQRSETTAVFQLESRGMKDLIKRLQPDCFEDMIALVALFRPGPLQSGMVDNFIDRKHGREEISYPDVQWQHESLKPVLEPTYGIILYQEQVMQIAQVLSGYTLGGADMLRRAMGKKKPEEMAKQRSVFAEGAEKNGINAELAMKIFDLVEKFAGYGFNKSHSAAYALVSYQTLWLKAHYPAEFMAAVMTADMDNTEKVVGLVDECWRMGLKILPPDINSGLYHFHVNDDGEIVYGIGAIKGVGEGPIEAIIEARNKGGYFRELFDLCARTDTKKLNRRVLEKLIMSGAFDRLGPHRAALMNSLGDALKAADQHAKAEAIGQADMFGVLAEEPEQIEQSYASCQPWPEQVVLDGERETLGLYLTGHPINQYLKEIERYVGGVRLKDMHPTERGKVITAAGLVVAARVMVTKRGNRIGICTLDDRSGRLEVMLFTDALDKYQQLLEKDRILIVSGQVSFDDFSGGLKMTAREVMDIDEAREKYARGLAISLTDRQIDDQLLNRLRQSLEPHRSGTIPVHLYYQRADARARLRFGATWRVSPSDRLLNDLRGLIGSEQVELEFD
Outline: (§1)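 3H-dTTP (0.011 mM) incorporation into DNase I-activated calf thymus DNA, alongside the other three dNTPs at 0.025 mM, measured by filter counting after TCA precipitation. Reactions ran 30 min at 30° C., started with purified N-His DnaE: 0.8 μg/ml for E. coli, 0.05 μg/ml for S. aureus.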

[2] = biological target: T2, S. aureus DnaE (DNA polymerase III α-subunit homolog from Staphylococcus aureus) (Staphylococcus aureus, UniProt Q5HF71); assay: biochemical; type: biochemical
T2 construct: SaDnaE (S. aureus DnaE residues 1-1065); 6xHis (N); made in house; host or cells: E. coli BL21-AI
T2 sequence (Q5HF71 1-1065): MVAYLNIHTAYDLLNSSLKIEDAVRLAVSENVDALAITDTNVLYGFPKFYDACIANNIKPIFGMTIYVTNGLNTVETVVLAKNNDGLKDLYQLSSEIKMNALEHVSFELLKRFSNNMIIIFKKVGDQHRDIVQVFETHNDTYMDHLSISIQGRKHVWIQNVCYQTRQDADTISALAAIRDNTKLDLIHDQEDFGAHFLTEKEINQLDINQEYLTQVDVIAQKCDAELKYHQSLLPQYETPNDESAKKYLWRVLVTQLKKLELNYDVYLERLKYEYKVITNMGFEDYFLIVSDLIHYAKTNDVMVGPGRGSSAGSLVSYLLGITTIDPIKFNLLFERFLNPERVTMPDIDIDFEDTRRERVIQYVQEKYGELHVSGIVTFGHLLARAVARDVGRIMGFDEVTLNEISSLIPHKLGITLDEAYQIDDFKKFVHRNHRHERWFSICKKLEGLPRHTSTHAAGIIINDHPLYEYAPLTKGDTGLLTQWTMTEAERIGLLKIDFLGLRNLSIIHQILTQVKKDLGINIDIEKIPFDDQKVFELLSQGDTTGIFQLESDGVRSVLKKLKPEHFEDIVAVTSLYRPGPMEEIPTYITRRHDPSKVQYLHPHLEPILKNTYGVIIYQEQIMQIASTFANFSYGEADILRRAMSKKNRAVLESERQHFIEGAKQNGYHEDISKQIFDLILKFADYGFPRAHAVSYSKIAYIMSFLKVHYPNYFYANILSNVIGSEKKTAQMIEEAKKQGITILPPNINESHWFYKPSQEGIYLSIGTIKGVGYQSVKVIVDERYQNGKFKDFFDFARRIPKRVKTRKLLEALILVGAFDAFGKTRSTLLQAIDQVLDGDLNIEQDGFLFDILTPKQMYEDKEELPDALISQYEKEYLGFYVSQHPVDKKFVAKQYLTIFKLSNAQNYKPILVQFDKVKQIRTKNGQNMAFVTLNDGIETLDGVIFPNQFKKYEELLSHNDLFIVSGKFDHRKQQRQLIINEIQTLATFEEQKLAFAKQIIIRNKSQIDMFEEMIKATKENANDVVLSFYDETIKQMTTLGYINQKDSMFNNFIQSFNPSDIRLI
Outline: as §1

[3] = test system: Escherichia coli MB5747 (LS 883, tolC); assay: microbe, parasite or virus in culture; type: cell-based; settings: Escherichia coli, read-out: E. coli LS883 tolC (MIC), MHII broth; * = some reduction of growth versus control at […]
[4] = test system: Pseudomonas aeruginosa MB5890 (CB1101, efflux-deleted); assay: microbe, parasite or virus in culture; type: cell-based; settings: Pseudomonas aeruginosa, read-out: P. aeruginosa MB5890 efflux-del (MIC), MHII broth; * = some reduction of growth versus control at […]
[5] = test system: Staphylococcus aureus MB6266 (MRSA COL); assay: Nargenicin antibacterial assay (MIC), S. aureus; type: cell-based; settings: Staphylococcus aureus, MRSA, read-out: S. aureus COL (MIC), MHII broth + 50% human serum; * = some reduction of growth versus control at […]
[6] = test system: Streptococcus pneumoniae MB6357 (CL 2883); assay: Nargenicin antibacterial assay (MIC), S. pneumoniae; type: cell-based; settings: Streptococcus pneumoniae, read-out: S. pneumoniae MB2883 (MIC), Isosensitest broth; * = some reduction of growth versus control at […]
[7] = read-out: E. coli DnaE IC50 (converted)

Structure (SMILES) | IC50 [1, 7] | IC50 ([2]; S. aureus DnaE IC50) | MIC [3] | MIC [4] | MIC [5] | MIC [6] | IC50 ([1]; E. coli DnaE IC50) | IC50 ([2]; read-out: S. aureus DnaE IC50 (converted))
CO[C@H]1CC2C=C[C@H]3[C@H]4O[C@]2(/C(C)=C/[C@@H](C)[C@@H]([C@@H](C)O)OC1=O)[C@@H]3[C@H](OC(N)=O)[C@@H](C)[C@H]4OC(=O)c1ccc[nH]1 (stereo partly drawn) [Example 38, (3R,4S,7S,10aR,11R,12R,13R,14R,14aS,14bS,E)-14-(carbamoyloxy)-4-((R)-1-hydroxyethyl)-7-methoxy-1,3,13-trimethyl-6-oxo-3,4,6,7,8,8a,10a,11,12,13,14,14 a-dodecahydro-11,14b-epoxynaphtho[2,1-e]oxecin-12-yl 1H-pyrrole-2-carboxylate] | ~197 µM | 0.0394 µM | 16 µg/mL (≈ 28.6 µM) | > 128 µg/mL | 32 µg/mL | 128 µg/mL (≈ 229 µM) | – | –
CO[C@H]1CC2C=C[C@H]3[C@H]4O[C@]2(/C(C)=C/[C@@H](C)[C@@H]([C@@H](C)O)OC1=O)[C@@H]3[C@H](OC(=O)NC1CC1)[C@@H](C)[C@H]4OC(=O)c1ccc[nH]1 (stereo partly drawn) [Example 39] | – | – | > 128 µg/mL | > 128 µg/mL | > 128 µg/mL | > 128 µg/mL | > 167 µM | 15 µM
CO[C@H]1CC2C=C[C@H]3[C@H]4O[C@]2(/C(C)=C/[C@@H](C)[C@@H]([C@@H](C)O)OC1=O)[C@@H]3[C@H](OC(=O)NS(=O)(=O)c1ccccc1)[C@@H](C)[C@H]4OC(=O)c1ccc[nH]1 (stereo partly drawn) [Example 40, (3R,4S,7S,10aR,11R,12R,13R,14R,14aS,14bS,E)-4-((R)-1-hydroxyethyl)-7-methoxy-1,3,13-trimethyl-6-oxo-14-(((phenylsulfonyl)carbamoyl)oxy)-3,4,6,7,8,8a,10a,11,12,13,14,14a-dodecahydro-11,14b-epoxynaphtho[2,1-e]oxecin-12-yl 1H-pyrrole-2-carboxylate] | > 143 µM | 1.57 µM | > 128 µg/mL | > 128 µg/mL | > 128 µg/mL | > 128 µg/mL | – | –
CO[C@H]1C[C@H]2C=C[C@H]3[C@H]4O[C@]2(/C(C)=C/[C@@H](C)[C@@H]([C@@H](C)O)OC1=O)[C@@H]3[C@H](O)[C@@H](C)[C@H]4OC(=O)c1[nH]c(Br)c(Br)c1Br [Example 41, (3R,4S,7S,8aS,10aR,11R,12R,13R,14R,14aS,14bS,E)-14-hydroxy-4-((R)-1-hydroxyethyl)-7-methoxy-1,3,13-trimethyl-6-oxo-3,4,6,7,8,8a,10a,11,12,13,14,14a-dodecahydro-11,14b-epoxynaphtho[2,1-e]oxecin-12-yl3,4,5-tribromo-1H-pyrrole-2-carboxylate] | – | 4.12 µM | > 128 µg/mL | > 128 µg/mL | > 128 µg/mL | 8 µg/mL (≈ 10.6 µM) | 79.8 µM | –
CO[C@H]1CC2C=C[C@H]3[C@H]4O[C@]2(/C(C)=C/[C@@H](C)[C@@H](C(C)O)OC1=O)[C@@H]3[C@H](O)[C@@H](C)[C@H]4OC(=O)c1[nH]c(I)c(I)c1I (stereo partly drawn) [Example 42] | 44.8 µM | 4.48 µM | > 128 µg/mL | > 128 µg/mL | 32 µg/mL | 1 µg/mL (≈ 1.12 µM) | – | –
CO[C@H]1C[C@H]2C=C[C@H]3[C@H]4O[C@]2(/C(C)=C/[C@@H](C)[C@@H]([C@@H](C)O)OC1=O)[C@@H]3[C@H](O)[C@@H](C)[C@H]4OC(=O)c1ccc(Br)[nH]1 [Example 43] | 75.7 µM | 0.202 µM | 8 µg/mL (≈ 13.5 µM) | > 128 µg/mL | 64 µg/mL | 128 µg/mL (≈ 215 µM) | – | –
CO[C@H]1C[C@H]2C=C[C@H]3[C@H]4O[C@]2(/C(C)=C/[C@@H](C)[C@@H]([C@@H](C)O)OC1=O)[C@@H]3[C@H](O)[C@@H](C)[C@H]4OC(=O)c1ccc(Cl)[nH]1 [Example 44] | 49.1 µM | < 0.0109 µM | 8 µg/mL (≈ 14.5 µM) | 128 µg/mL (≈ 233 µM) | 16 µg/mL | 64 µg/mL (≈ 116 µM) | – | –
CO[C@H]1C[C@H]2C=C[C@H]3[C@H]4O[C@]2(/C(C)=C/[C@@H](C)[C@@H]([C@@H](C)O)OC1=O)[C@@H]3[C@H](O)[C@@H](C)[C@H]4OC(=O)c1cc(Br)c[nH]1 [Example 46] | 16.8 µM | 0.0151 µM | 2 µg/mL (≈ 3.36 µM) | 128 µg/mL (≈ 215 µM) | 8 µg/mL | 64 µg/mL (≈ 108 µM) | – | –
CO[C@H]1C[C@H]2C=C[C@H]3[C@H]4O[C@]2(/C(C)=C/[C@@H](C)COC1=O)[C@@H]3[C@H](O)[C@@H](C)[C@H]4OC(=O)c1ccc[nH]1 [Example 47, (3R,7S,8aS,10aR,11R,12R,13R,14R,14aS,14bS,E)-14-hydroxy-7-methoxy-1,3,13-trimethyl-6-oxo-3,4,6,7,8,8a,10a,11,12,13,14,14a-dodecahydro-11,14b-epoxynaphtho[2,1-e]oxecin-12-yl 1H-pyrrole-2-carboxylate] | > 212 µM | 0.0891 µM | 16 µg/mL (≈ 33.9 µM) | > 128 µg/mL | 64 µg/mL | > 128 µg/mL | – | –
CO[C@H]1C[C@H]2C=C[C@H]3[C@H]4O[C@]2(/C(C)=C/[C@@H](C)[C@H](C)OC1=O)[C@@H]3[C@H](O)[C@@H](C)[C@H]4OC(=O)c1ccc[nH]1 [Example 48, (3R,4S,7S,8aS,10aR,11R,12R,13R,14R,14aS,14bS,E)-14-hydroxy-7-methoxy-1,3,4,13-tetramethyl-6-oxo-3,4,6,7,8,8a,10a,11,12,13,14,14a-dodecahydro-11,14b-epoxynaphtho[2,1-e]oxecin-12-yl 1H-pyrrole-2-carboxylate] | – | 0.165 µM | 64 µg/mL (≈ 132 µM) | > 128 µg/mL | > 128 µg/mL | 128 µg/mL (≈ 264 µM) | > 206 µM | –
CC[C@@H]1OC(=O)[C@@H](OC)C[C@H]2C=C[C@H]3[C@H]4O[C@]2(/C(C)=C/[C@H]1C)[C@@H]3[C@H](O)[C@@H](C)[C@H]4OC(=O)c1ccc[nH]1 [Example 49] | > 200 µM | 0.56 µM | 64 µg/mL (≈ 128 µM) | > 128 µg/mL | > 128 µg/mL | > 128 µg/mL | – | –
CO[C@H]1C[C@H]2C=C[C@H]3[C@H]4O[C@]2(/C(C)=C/[C@@H](C)[C@@H](c2ccccc2)OC1=O)[C@@H]3[C@H](O)[C@@H](C)[C@H]4OC(=O)c1ccc[nH]1 [Example 51] | 14.6 µM | < 0.011 µM | > 128 µg/mL | > 128 µg/mL | 0.25 µg/mL | > 128 µg/mL | – | –
CO[C@H]1C[C@H]2C=C[C@H]3[C@H]4O[C@]2(/C(C)=C/[C@@H](C)[C@H](c2ccccc2)OC1=O)[C@@H]3[C@H](O)[C@@H](C)[C@H]4OC(=O)c1ccc[nH]1 [Example 52] | 73 µM | 1.1 µM | > 128 µg/mL | > 128 µg/mL | > 128 µg/mL | > 128 µg/mL | – | –
CO[C@H]1C[C@H]2C=C[C@H]3[C@H]4O[C@]2(/C(C)=C/[C@H](C)[C@@H](c2ccccc2)OC1=O)[C@@H]3[C@H](O)[C@@H](C)[C@H]4OC(=O)c1ccc[nH]1 [Example 53] | 73 µM | 0.183 µM | > 128 µg/mL | > 128 µg/mL | > 128 µg/mL | > 128 µg/mL | – | –
